Data on four molecules can be found in paper PMC5635000, “Structural and mechanistic characterization of an archaeal-like chaperonin from a thermophilic bacterium” (Nature Communications, 2017).

Assay [1] addresses T1, Ch-CPN (Carboxydothermus hydrogenoformans, UniProt Q3AF10).
T1 construct: gene CHY_0413; full-length wild type, 521 residues; recombinant from E. coli BL21(DE3), no tag mentioned; homo-hexadecamer of two octameric rings; residues 10-502 (5X9V) and 9-502 (5X9U) modelled
T1 sequence (Q3AF10 1-521): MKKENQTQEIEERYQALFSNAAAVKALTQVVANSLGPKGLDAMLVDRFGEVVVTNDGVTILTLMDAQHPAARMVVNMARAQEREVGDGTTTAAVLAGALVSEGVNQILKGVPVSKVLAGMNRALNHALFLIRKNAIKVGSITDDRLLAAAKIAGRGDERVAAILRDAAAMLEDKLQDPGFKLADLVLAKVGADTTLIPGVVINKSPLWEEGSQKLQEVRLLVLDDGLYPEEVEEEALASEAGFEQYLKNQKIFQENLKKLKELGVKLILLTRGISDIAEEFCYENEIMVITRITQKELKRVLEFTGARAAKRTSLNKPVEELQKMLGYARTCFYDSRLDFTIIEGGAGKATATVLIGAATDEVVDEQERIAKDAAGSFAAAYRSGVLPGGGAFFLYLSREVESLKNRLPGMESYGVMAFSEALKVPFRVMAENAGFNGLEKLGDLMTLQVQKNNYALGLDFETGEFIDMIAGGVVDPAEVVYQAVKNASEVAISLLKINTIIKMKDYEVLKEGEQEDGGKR
In words: X-ray crystal structure, […] Å. Type of assay: binding. The settings on record: open conformation; nucleotide site of equatorial domain; no Mg2+ seen; 3 mM ADP, pH 7.0.

The target in assay [2] is T1, Ch-CPN. In words: X-ray crystal structure, […] Å. Type of assay: binding. The settings on record: closed conformation; nucleotide site of equatorial domain; Mg2+; 3 mM AMPPNP, pH 7.5.
For assay [3], the target named is Ch-CPN L439A pivot joint mutant (Carboxydothermus hydrogenoformans) (UniProt Q3AF10). In words: not stated; L439A subunits purified as hexadecameric chaperonins (Supplementary Fig. 12b).
Assay [4] addresses Group III chaperonin from Carboxydothermus hydrogenoformans (Ch-CPN), wild type (Carboxydothermus hydrogenoformans) (UniProt Q3AF10). In words: crystal structure; Ch-CPN with 3 mM AMPPNP, closed conformation; batch crystallisation at 22 °C, 20 mM MgCl2, 100 mM HEPES:NaOH pH 7.5; 3.0 Å.

As to `Nc1ncnc2c1ncn2[C@@H]1O[C@H](COP(=O)(O)OP(=O)(O)O)[C@@H](O)[C@H]1O` [ADP], in assay [1], the “X-ray crystal structure, 4.0 Å” value is listed as “The crystal structure of the ADP-bound Ch-CPN shows its fully open conformation”.

With `Nc1ncnc2c1ncn2[C@@H]1O[C@H](COP(=O)(O)OP(=O)(O)NP(=O)(O)O)[C@@H](O)[C@H]1O` [AMPPNP], the “X-ray crystal structure, 3.0 Å” value in assay [2] is listed as “crystal structure of Ch-CPN in complex with AMPPNP, an ATP analog, revealed its closed conformation”.

The stoichiometry N is the number of molecules, sites or subunits per partner or assembly. Molecule “Ch-CPN L439A pivot joint mutant (from UniProt Q3AF10 1-521) (natural protein)” had a stoichiometry N in assay [3] of 16.

Consider “Group III chaperonin from Carboxydothermus hydrogenoformans (Ch-CPN), wild type (from UniProt Q3AF10 1-521) (natural protein)”, for which, in assay [4], the stoichiometry N was 16.
